Test results published in patent US20010011096A1, “Polycyclic thiazol-2-ylidene amines, processes for their preparation and their use as medicaments” (priority 1999, published 2001).
Several values for one entry are separate records, joined by “and”; a condition that tells them apart may be missing. Identical values can stand only once.

What was measured:
male NMR^1 mice = assay: Anorectic effect: consumption of condensed milk by fasted mice after administration by gavage; assay type: in vivo
Method: The anorectic effect was tested on male NMR^1 mice. After withdrawal of feed for 24 hours, the test product was administered by gavage. The animals were housed singly and had free access to drinking water and, 30 minutes after administration of the product, they were offered condensed milk. The consumption of condensed milk was determined, and the general behavior of the animals was inspected, every half hour for 7 hours. The measured milk consumption was compared with that of untreated control animals.

Compound | melting point | Reduction in the cumulative milk consumption as % of the controls (male NMR^1 mice; oral dose 50 mg/kg by gavage, compared with untreated control animals, 7 hours) | cumulative milk consumption by the treated animals (male NMR^1 mice; oral dose 50 mg/kg by gavage, feed withdrawn 24 hours, milk offered 30 minutes after administration, determined for 7 hours, 5 animals) | Remarks (general behavior / side effects of the animals) (male NMR^1 mice; oral dose 50 mg/kg, behavior inspected every half hour for 7 hours)
Br.CN=c1sc2c(n1C)-c1cccc(-c3ccc(C(F)(F)F)cc3)c1C2 | 231 °C and 230 to 233 °C | – | – | –
Br.CN1C(=CN)SC2=C1c1ccc(Cl)cc1C2 | 278 °C | – | – | –
Cl.Cn1c2c(sc1=NCC(=O)O)COc1ccc(F)cc1-2 | 256 °C | – | – | –
CN1C(=CN)SC2=C1c1ccc(Oc3ccc(Cl)cc3)cc1C2.Cl [Example 15, [6-(4-Chlorophenoxy)-3-methyl-3,8-dihydroindeno[1,2-d]thiazol-2-ylidene]methylamine hydrochloride] | 250 to 252 °C and 251 °C | – | – | –
Br.c1ccc(Oc2ccc3c(c2)CC2=C3N3CCN=C3S2)cc1 [Example 24, 7-Phenoxy-4H,9H-2,3-dihydroimidazo[2,1-b]indeno[1,2-d]thiazole hydrobromide] | – | 93% | 5/0.30 ml | none
